In paper PMC9968196, “Synthesis, Characterization, and Biological Evaluation of Meldrum’s Acid Derivatives: Dual Activity and Molecular Docking Study” (Pharmaceuticals, 2023):
Values after ≈ are worked out from the molar mass of the structure shown. Values belong to the compound of their own block, whether it stands above or below them.

Columns and labels:
[1] = Cytotoxicity, MTT assay, normal cells; format: cell-based, human; conditions: human, MRC-5 normal lung fibroblast cells; MRC-5 normal fibroblast; 72 h
Experimental: (§1) Cell line cells were obtained from the American Type Culture Collection. Human cervical adenocarcinoma HeLa, human chronic myelogenous leukemia K562, non-small cell lung carcinoma A549, human colon carcinoma LS174, pancreatic carcinoma PaCa-2, and normal human lung fibroblast MRC-5 cell lines were grown in RPMI-1640 medium with 10% fetal bovine serum, L-glutamine, and penicillin–streptomycin solution. Cells were plated into the 96-well cell culture plates. Cells were incubated at 37 °C in CO2 incubator. Adherent cell lines were incubated for 20 h before addition of tested compounds. Two hours before addition of compounds, K562 cells were seeded into 96-well plates. The tested compounds were applied at five different concentrations ranging from 10 to 300 µM for 72 h. Thereafter, the survival of cells was determined by MTT assay in accordance with the protocol established by Mosmann and Ohno and Abe. The solution of MTT was added to blank and cell samples. The plates were incubated for 5 h at 37 °C, and then 10% solution of sodium dodecyl sulfate was added to the wells. The absorbance was measured at 570 nm using Thermo Scientific Multiskan EX plate reader. Three independent experiments were performed.

[2] = system: pancreatic carcinoma PaCa-2; test: Cytotoxicity, MTT assay; format: cell-based; conditions: Homo sapiens, 72 h
Experimental: as §1

[3] = system: human cervical adenocarcinoma HeLa; test: Cytotoxicity, MTT assay; format: cell-based; conditions: for selectivity index (SI): HeLa cells versus MRC-5; for IC50: Homo sapiens, HeLa, 72 h
Experimental: as §1

[4] = system: human chronic myelogenous leukemia K562; test: Cytotoxicity, MTT assay; format: cell-based; conditions: 72 h
Experimental: as §1

[5] = system: human colon carcinoma LS174; test: Cytotoxicity, MTT assay; format: cell-based
Experimental: as §1

[6] = system: Staphylococcus aureus (ATCC 25923); test: Antimicrobial activity, broth microdilution MIC with resazurin; format: cell-based; conditions: ATCC25923, S. aureus, 37 °C, 24 h, average of three independent experiments
Experimental: (§2) The following strains of bacteria were used as test organisms in this study: Staphylococcus aureus (ATCC 25923), Bacillus subtilis (ATCC 6633), Bacillus cereus (ATCC 10987), and Escherichia coli (ATCC 25922). All the bacteria used were obtained from the American Type Culture Collection (ATCC). Cultures were stored at 4 °C and subcultured every 15 days. The minimal inhibitory concentration (MIC) was determined by the broth microdilution method using 96-well micro-titer plates. A series of dilutions of the tested compounds was used in the experiment against every microorganism. The starting solutions of tested compounds were obtained by measuring off a certain quantity of the compounds and dissolving it in 5% DMSO. The MIC was determined with resazurin. The inoculated plates were incubated at 37 °C for 24 h. Resazurin is an oxidation–reduction indicator used for the evaluation of microbial growth. It is a blue non-fluorescent dye that becomes pink and fluorescent when reduced to resorufin by oxidoreductases within viable cells. The boundary dilution without any changing in color of resazurin was defined as the MIC for the tested microorganism at a given concentration. As a positive control of growth inhibition, streptomycin was used. A 5% DMSO solution was used as a negative control for the influence of the solvents.

[7] = system: Bacillus cereus (ATCC 10987); test: as above; format: cell-based; conditions: ATCC10987, B. cereus, 37 °C, 24 h, average of three independent experiments
Experimental: as §2

[8] = system: Escherichia coli (ATCC 25922); test: as above; format: cell-based; conditions: ATCC25922, E. coli, 37 °C, 24 h, average of three independent experiments
Experimental: as §2

[9] = system: Bacillus subtilis (ATCC 6633); test: as above; format: cell-based; conditions: ATCC6633, B. subtilis, 37 °C, 24 h, average of three independent experiments
Experimental: as §2

[10] = system: non-small cell lung carcinoma A549; test: Cytotoxicity, MTT assay; format: cell-based, human; conditions: for selectivity index (SI): A549 cells versus MRC-5; for IC50: Homo sapiens, A549, 72 h
Experimental: as §1

[11] = system: normal human lung fibroblast MRC-5; test: Cytotoxicity, MTT assay, normal cells; format: cell-based; conditions: MRC-5
Experimental: as §1

Gyrase B of E. Coli = system: Gyrase B of E. Coli; parameters: method as in PMID 31257079; conditions: read-out: inhibitory activity IC50; cited from earlier work
[12] = parameters: method as in PMID 34019615, PMID 20000793; conditions: cited from earlier work

MIC [6]: 145 µM (≈ 59.6 µg/mL) | MIC [7]: 80.5 µM (≈ 33 µg/mL) | MIC [8]: 38.1 µM (≈ 15.6 µg/mL) | MIC [9]: 133 µM (≈ 54.6 µg/mL)
SMILES: COc1cc(C=C2C(=O)OC(C)(C)OC2=O)ccc1OCCOCCOCCO [3e, 5-(4′-(2″-(2′″-(2″″-hydroxyethoxy)ethoxy)ethoxy)-3′-methoxybenzylidene)-2,2-dimethyl-1,3-dioxane-4,6-dione]
IC50 at 72 h [1]: 111 ± 2.19 µM | IC50 [2]: 182 ± 3.94 µM | selectivity index (SI) [3]: 4.0 | IC50 [3]: 37.3 ± 1.2 µM | IC50 [4]: 80.5 ± 2.36 µM | IC50 ([5]; Homo sapiens, LS174, 72 h): 38.1 ± 0.41 µM | selectivity index (SI) [10]: 2.6 | IC50 [10]: 25.9 ± 0.46 µM

MIC [6]: 210 µM (≈ 70.4 µg/mL) | MIC [7]: 174 µM (≈ 58.2 µg/mL) | MIC [8]: 89.5 µM (≈ 29.9 µg/mL) | MIC [9]: 175 µM (≈ 58.6 µg/mL)
SMILES: CCC(=O)Oc1ccc(C=C2C(=O)OC(C)(C)OC2=O)cc1OC [3b, 2′-methoxy-4′-((2,2-dimethyl-4,6-dioxo-1,3-dioxan-5-ylidene)methyl)phenyl propionate]
IC50 at 72 h [1]: > 200 µM | IC50 [2]: 153 ± 4.29 µM | IC50 [3]: 102 ± 2.14 µM | IC50 [4]: 74.5 ± 1.73 µM | IC50 ([5]; Homo sapiens, LS174, 72 h): 105 ± 4.62 µM | IC50 [10]: 41.2 ± 1.74 µM

MIC [6]: 60.4 µM (≈ 22.7 µg/mL) | MIC [7]: 37.5 µM (≈ 14.1 µg/mL) | MIC [8]: 36.1 µM (≈ 13.6 µg/mL) | MIC [9]: 45.2 µM (≈ 17 µg/mL)
SMILES: CCCCCCCOc1ccc(C=C2C(=O)OC(C)(C)OC2=O)cc1OC [3g, 5-(4′-heptyloxy-3′-methoxybenzylidene)-2,2-dimethyl-1,3-dioxane-4,6-dione]
IC50 at 72 h [1]: 139 ± 3.07 µM | IC50 [2]: 94.2 ± 1.09 µM | IC50 [4]: 69.5 ± 1.37 µM | IC50 ([5]; Homo sapiens, LS174, 72 h): 47.1 ± 1.69 µM | IC50 [10]: 35.1 ± 0.27 µM

MIC [6]: 206 µM (≈ 71.3 µg/mL) | MIC [7]: 172 µM (≈ 59.4 µg/mL) | MIC [8]: 85.1 µM (≈ 29.5 µg/mL) | MIC [9]: 180 µM (≈ 62.5 µg/mL)
SMILES: COc1cc(C=C2C(=O)OC(C)(C)OC2=O)ccc1OC(=O)C1CC1 [3c, 2′-methoxy-4′-((2,2-dimethyl-4,6-dioxo-1,3-dioxan-5-ylidene)methyl)phenyl cyclopropanecarboxylate]
IC50 at 72 h [1]: > 200 µM | IC50 [2]: 172 ± 5.25 µM | IC50 [3]: 84.6 ± 1.84 µM | IC50 [4]: 70.2 ± 1.68 µM | IC50 ([5]; Homo sapiens, LS174, 72 h): 99.6 ± 1.44 µM | IC50 [10]: 45.7 ± 1.65 µM

MIC [6]: 0.005 µM (≈ 0.00291 µg/mL) | MIC [7]: 0.003 µM (≈ 0.00174 µg/mL) | MIC [8]: 0.01 µM (≈ 0.00582 µg/mL) | MIC [9]: 0.003 µM (≈ 0.00174 µg/mL)
SMILES: [H]/N=C(/N)N[C@H]1[C@H](O)[C@@H](O)[C@H](O[C@@H]2O[C@@H](C)[C@](O)(C=O)[C@H]2O[C@@H]2O[C@@H](CO)[C@H](O)[C@@H](O)[C@@H]2NC)[C@@H](N/C(N)=N\[H])[C@@H]1O [streptomycin, reference compound]

MIC [6]: 73.9 µM (≈ 26.8 µg/mL) | MIC [7]: 42.3 µM (≈ 15.3 µg/mL) | MIC [8]: 37.5 µM (≈ 13.6 µg/mL) | MIC [9]: 48.3 µM (≈ 17.5 µg/mL)
SMILES: CCCCCCOc1ccc(C=C2C(=O)OC(C)(C)OC2=O)cc1OC [3f, 5-(4′-hexyloxy-3′-methoxybenzylidene)-2,2-dimethyl-1,3-dioxane-4,6-dione]
IC50 at 72 h [1]: 144 ± 2.84 µM | IC50 [2]: 110 ± 1.75 µM | IC50 [3]: 63.5 ± 0.45 µM | IC50 [4]: 71.9 ± 1.65 µM | IC50 ([5]; Homo sapiens, LS174, 72 h): 45.3 ± 0.58 µM | IC50 [10]: 39.6 ± 0.74 µM

Continued, compound first:

SMILES: CCCCCCCCOc1ccc(C=C2C(=O)OC(C)(C)OC2=O)cc1OC [3h, 5-(3′-methoxy-4′-octyloxybenzylidene)-2,2-dimethyl-1,3-dioxane-4,6-dione]
IC50 at 72 h [1]: 72.8 ± 0.77 µM | toxicity towards MRC-5 cell lines (in words) [11]: moderate toxicity | IC50 [2]: 90.5 ± 0.83 µM | selectivity index (SI) [3]: 2.9 | IC50 [3]: 18.2 ± 0.11 µM | IC50 [4]: 73.5 ± 1.43 µM | IC50 ([5]; Homo sapiens, LS174, 72 h): 36.5 ± 0.24 µM | MIC [6]: 54.2 µM (≈ 21.2 µg/mL) | MIC [7]: 64.8 µM (≈ 25.3 µg/mL) | MIC [8]: 14.7 µM (≈ 5.74 µg/mL) | MIC [9]: 31.5 µM (≈ 12.3 µg/mL) | selectivity index (SI) [10]: 4.3 | IC50 [10]: 27.4 ± 0.78 µM

SMILES: COc1ccc(C(=O)Oc2ccc(C=C3C(=O)OC(C)(C)OC3=O)cc2OC)cc1 [3d, 2′-methoxy-4′-((2,2-dimethyl-4,6-dioxo-1,3-dioxan-5-ylidene)methyl)phenyl 4-methoxybenzoate]
IC50 at 72 h [1]: > 200 µM | IC50 [2]: 145 ± 2.92 µM | IC50 [3]: 94.5 ± 3.15 µM | IC50 [4]: 105.1 ± 0.92 µM | IC50 ([5]; Homo sapiens, LS174, 72 h): 118.9 ± 0.95 µM | MIC [6]: 200 µM (≈ 82.3 µg/mL) | MIC [7]: 168 µM (≈ 69.4 µg/mL) | MIC [8]: 74.8 µM (≈ 30.8 µg/mL) | MIC [9]: 169 µM (≈ 69.7 µg/mL) | IC50 [10]: 36.2 ± 0.39 µM

SMILES: CCCCCCCCCCOc1ccc(C=C2C(=O)OC(C)(C)OC2=O)cc1OC [3i, 5-(4′-decyloxy-3′-methoxybenzylidene)-2,2-dimethyl-1,3-dioxane-4,6-dione]
IC50 at 72 h [1]: 74.6 ± 1.46 µM | toxicity towards MRC-5 cell lines (in words) [11]: moderate toxicity | IC50 [2]: 58.2 ± 0.74 µM | selectivity index (SI) [3]: 4.8 | IC50 [3]: 15.7 ± 0.28 µM | IC50 [4]: 63.7 ± 2.49 µM | IC50 ([5]; 72 h): 30.5 ± 0.35 µM | IC50 ([5]; Homo sapiens, LS174, 72 h): 20.8 µM | MIC [6]: 50.9 µM (≈ 21.3 µg/mL) | MIC [7]: 41.5 µM (≈ 17.4 µg/mL) | MIC [8]: 12.4 µM (≈ 5.19 µg/mL) | MIC [9]: 29.5 µM (≈ 12.3 µg/mL) | IC50 [10]: 21.8 ± 0.91 µM

SMILES: COc1cc(C=C2C(=O)OC(C)(C)OC2=O)cc([N+](=O)[O-])c1O [3a, 5-(4′-hydroxy-3′-methoxy-5′-nitrobenzylidene)-2,2-dimethyl-1,3-dioxane-4,6-dione]
IC50 at 72 h [1]: > 200 µM | IC50 [2]: > 200 µM | IC50 [3]: 126 ± 1.45 µM | IC50 [4]: 151 ± 3.47 µM | IC50 ([5]; Homo sapiens, LS174, 72 h): > 200 µM | MIC [8]: 115 µM (≈ 37.3 µg/mL) | IC50 [10]: > 200 µM

SMILES: CCNC(=O)Nc1cc(-n2cc(Br)cn2)c(C(=O)Nc2cccnc2)cn1 [P3C, 4-(4-bromo-1H-pyrazol-1-yl)-6-[(ethylcarbamoyl)amino]-N-(pyridine-3-yl)pyridine-3-carboxamide]
IC50 (Gyrase B of E. Coli): 0.037 µM

SMILES: CC1(C)OC(=O)CC(=O)O1 [Meldrum’s acid]
pKa [12]: 4.9
